Results from US11246816B2, “Shampoo compositions comprising a chelant” (The Procter & Gamble Company, priority 2016, dated 2022).

Legend:
[1] = Copper content of colored hair switches after repeated shampoo wash cycles (ICP-OES); conditions: clarifying shampoo containing the chelant, 20 cycles, copper content of hair compared to same treatment with shampoo without chelant
Procedure: The copper removing performance of the shampoo composition is determined by treating hair with clarifying shampoo containing the corresponding chelant for 20 cycles and comparing the copper content of the hair compared to the same treatment using shampoo without the chelant.
All testing are performed on colored hair switches (see Method of Measurement of Copper on Hair below) weighing approximately 4.0 grams and having a length of approximately 6 inches. The hair switches are commercially available from IHIP (International Hair Importers). Three hair switches per shampoo composition are used. An amount of […] of shampoo is spread via a syringe onto separate hair switch. That is, the dosage is 0.10 g of shampoo per g of hair. Each application consists of adding shampoo to the hair, milking for 30 seconds followed by rinsing for 30 seconds. Shampoo is then reapplied (0.1 g/g), milked for 30 seconds and rinsed for 30 seconds. Excess water is squeezed from the hair switches and left to air dry or treated with a rinse-off conditioner and/or a leave-on treatment composition. This protocol is repeated for a number of times/cycles (as indicated in the tables below, which describe the details of hair treatments).
The following test method is used to assess the ability of the compositions and regimens to remove copper from the hair and to inhibit copper deposition onto the hair.
Hair switches are colored once with an oxidative hair colorant. An extra blonde shade is used for the testing. The hair switches are washed for 10 or 20 repeat wash cycles in tap water containing 7 grains per gallon water hardness (Ca/Mg) and 0.06 μg/g copper ions. Each wash cycle consists of two applications of 0.1 g/g a shampoo to the hair switches. Each application consists of adding shampoo to the hair, milking for 30 secs followed by rinsing for 30 secs. Shampoo is then reapplied 0.1 g/g, milked for 30 secs, rinsed for 30 secs and then dried in a heat box (60° C.) until dry.
Samples of 100 mg of hair are digested overnight with 2 ml of high purity concentrated nitric acid. The digestive mixture also contains 150 μL of 100 μg/g Yttrium internal standard (Inorganic Ventures, Christianburg, Va., USA). Following digestion, samples are heated to 70-80° C. for one hour, cooled to room temperature and diluted to 15 mL with deionized water. Copper content of the hair switches is determined by inductively coupled plasma atomic spectroscopy (ICP-OES)). For each leg, 3 different samples are analyzed.
In order to minimize the variability of the resulting copper content on hair that is related to (a) lot-to-lot viariability due to hair switches and (b) day-to-day variability of the water used during shampoo and conditioner treatments, a single lot of hair switches is used for each experimental series and a separate control experiment/treatment is run for each experimental series (see below).

[2] = log of formation constant of complex with copper; cited from earlier work
[3] = Log P, n-octanol/water partition coefficient; assay type: physicochemical
From the text: The term log P is the n-octanol/water partition coefficients of the material.
The copper to be removed is inside the hair and the chelant needs to penetrate inside hair and form a strong copper-chelant complex. This copper-chelant complex needs to be water soluble and thus easily removed during the rinsing process. […] These are log P, the octanol/water partitioning coefficient, and the molecular weight of the chelant. Both are related to the ability of the chelant to penetrate into hair and also form a water soluble copper-chelant complex

Structure (SMILES)	logP [3]	Copper Removing Performance from Shampoo [1] [%]	Log KML Cu [2]
O=C(O)c1ccc2ccccc2n1 [Quinaldic Acid, quinaldic acid]	2.1	35	5.9
O=C(O)c1cc(O)cc(C(=O)O)n1 [Chelidamic Acid, chelidamic acid]	0.6	35	12.2
O=C(O)c1cccc(C(=O)O)n1 [Dipicolinic Acid, dipicolinic acid]	0.8	40	9.1
CCCCc1ccc(C(=O)O)nc1 [Fusaric Acid, fusaric acid]	2.6	–	–

More lines, main results first:

logP [3]	Structure (SMILES)	Copper Removing Performance from Shampoo [1] [%]	Log KML Cu [2]
0.7	O=C(O)c1ccccn1 [Picolinic Acid, picolinic acid]	50	7.9
0	Nc1cc(C(=O)O)nc(C(=O)O)c1 [4-Aminopyridine-2,6-dicarboxylic acid, 4-aminopyridine-2,6-dicarboxylic acid]	–	11.4
1	Cc1cccc(C(=O)O)n1 [6-Methyl Picolinic Acid, 6-methylpyridine-2-carboxylic acid]	35	7.1
0.4	O=C(O)c1cccnc1C(=O)O [Quinolinic Acid, quinolinic acid]	50	–
